Results reported in US5240935A, “Substituted 2-azabicyclo[2.2.2]octane derivatives and compositions and method of use thereof” (Sterling Winthrop Inc., priority 1992, dated 1993).
pKi: −log10 of the molar value. Where a name gives a salt, the structure may show the parent alone. Read-outs that look alike come from different tables or passages of the source.

Legend:
sigma receptors [1] = target: T1, sigma receptors (Cavia porcellus, UniProt Q60492); assay: sigma receptor binding, [^3 H](+)-pentazocine, guinea pig brain membranes; set-up: species or system guinea pig (male Hartley); conditions: for pKi: mean of at least two separate determinations in triplicate, EBDA/LIGAND; for inhibition at 10 µM: read-out: Percent Inhibition of [^3 H](+)-pentazocine binding
T1 construct: Brain tissue was prepared from male Hartley guinea pigs; from tissue; host or cells: brain membranes of male Hartley guinea pigs (22,000 x g pellet)
T1 sequence (Q60492 whole entry): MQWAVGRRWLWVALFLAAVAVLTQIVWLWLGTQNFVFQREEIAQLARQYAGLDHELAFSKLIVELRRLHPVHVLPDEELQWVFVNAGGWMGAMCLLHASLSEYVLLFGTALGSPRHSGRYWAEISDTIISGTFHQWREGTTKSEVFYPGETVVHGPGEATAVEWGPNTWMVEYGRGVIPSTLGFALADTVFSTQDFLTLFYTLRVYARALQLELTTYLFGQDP
Experimental: Brain tissue was prepared from male Hartley guinea pigs (Hazelton Labs, Denver, Pa.) which were anesthetized with CO2 and sacrificed by decapitation. All animal care and use procedures were in accord with the "Guide for the Care and Use of Laboratory Animals" (NIH Publ. No. 86-23, 1985). Homogenization was performed in 10 volumes (wt/vol) of 0.32M sucrose with a Brinkmann Polytron at setting 5, 30 sec. The homogenate was centrifuged at 900×g for 10 min at 4° C., and the supernatant was collected and centrifuged at 22,000×g for 20 min at 4° C. The pellet was resuspended in 10 volumes of Tris-HCl buffer (50 mM, pH 7.4), incubated at 37° C. for 30 min, and centrifuged at 22,000×g for 20 min at 4° C. Following this, the pellet was resuspended in Tris buffer and frozen in 5-10 mL aliquots corresponding to a tissue concentration of 100 mg/mL, at -70° C. Binding characteristics of the membranes were stable for at least one month when stored at -70° C.
On the day of the assay, membrane aliquots were thawed, resuspended in fresh Tris-HCl buffer and stored on ice until use. Each assay tube contained 100 μL of [^3 H]-(+)-pentazocine at a final concentration of approximately 0.5 nM or 100 μL of [^3 H]-di(2-tolyl)guanidine (DTG) at a final concentration of approximately 4 nM, 100 μL of various concentrations of the compounds of interest, 500 μL of the tissue suspension and 300 μL of buffer to a final assay volume of 1 mL and a final tissue concentration of approximately 8 mg/tube, corresponding to approximately 0.15 mg protein/tube. Non-specific binding was defined by addition of a final concentration of 1 μM haloperidol to blank tubes for [^3 H](+)-pentazocine assay or by addition of a final concentration of 10 μM haloperidol to blank tubes for [^3 H]DTG assay. All tubes were incubated at 37° C. for 150 min in the [^3 H](+)-pentazocine assay or at 25° C. for 90 min in the [^3 H]DTG assay before termination of the reaction by rapid filtration over Whatman GF/B glass fiber filters that were presoaked in a solution of 0.5% polyethylenimine for at least 1 hr prior to use. Filters were washed with three 4 ml volumes of cold Tris-HCl buffer.
Following addition of scintillation cocktail, samples were allowed to equilibrate for at least 4 hr. The amount of bound radioactivity was determined by liquid scintillation spectrometry using a Beckman LS 5000 TA liquid scintillation counter with an efficiency for tritium of approximately 60%. The results are reported as a percent (%) inhibition of binding at 10 μM.
Scatchard parameters and inhibition constants (Ki values) for the binding of test compounds were also calculated using the EBDA/LIGAND program (McPherson, J. Pharmacol. Meth. 1985, 14, 213-228), purchased from Elsevier/Biosoft, Inc The Ki values are expressed as the mean of at least two separate determinations performed in triplicate.

[2] = system: apomorphine-induced stereotypy; assay: apomorphine-induced stereotypy assay; type: in vivo, mice (male, Swiss-Webster); conditions: Mus musculus, ip; test compound i.p.; apomorphine 5.5 mg/kg s.c.; rated 20-30 min post drug; Dunnett's Test P<0.05; read-out: Apomorphine-induced stereotypy assay MED (minimal effective dose for inhibition)
Experimental: (§1) Representative compounds of the invention were tested in vivo in the apomorphine-induced climbing assay and the apomorphine-induced stereotypy assay using the following procedures.
(§2) Male, Swiss-Webster mice (Taconic Farms, Germantown, New York), weight 20-30 grams, were grouped housed in colony facilities for a minimum of two days prior to testing. The colony facility was maintained on a 12 hour light/dark cycle (light: 0600-1800 hours) with water and Agway Prolab 100 rat chow available ad libitum. Each mouse was given an injection of test compound i.p. followed immediately by a s.c. injection of apomorphine 5.5 mg/kg or vehicle. All drugs were administered in a volume of 10 ml/kg body weight. The mice were then placed in individual cylindrical stainless steel climbing cages; 14.5 cm tall, 12 cm in diameter, with walls consisting of 1/16" O.D. bars spaced 0.8-1.0 cm apart, and were allowed to habituate to this environment for 20 minutes. […] Briefly, a (0) was scored for absence of any stereotypic behavior, infrequent stereotypic movements were scored as (1), a (2) was scored for permanent sniffing and a score of (3) indicated intense and continuous stereotypic behavior. Treatment means for the 10 minute totals were calculated for climbing and stereotypy. […] A minimal effective dose (MED) for inhibition was determined for each parameter based on these analyses.

sigma receptors [3] = assay: sigma receptor binding, [^3 H]di(2-tolyl)guanidine (DTG), guinea pig brain membranes; set-up: species or system guinea pig (male Hartley); conditions: [^3 H]DTG approx. 4 nM, 25° C., 90 min; for pKi: mean of at least two separate determinations in triplicate, EBDA/LIGAND; for Percent Inhibition of [^3 H]DTG binding: at 10 μM
Experimental: Brain tissue was prepared from male Hartley guinea pigs (Hazelton Labs, Denver, Pa.) which were anesthetized with CO2 and sacrificed by decapitation. […] Homogenization was performed in 10 volumes (wt/vol) of 0.32M sucrose with a Brinkmann Polytron at setting 5, 30 sec. The homogenate was centrifuged at 900×g for 10 min at 4° C., and the supernatant was collected and centrifuged at 22,000×g for 20 min at 4° C. The pellet was resuspended in 10 volumes of Tris-HCl buffer (50 mM, pH 7.4), incubated at 37° C. for 30 min, and centrifuged at 22,000×g for 20 min at 4° C. Following this, the pellet was resuspended in Tris buffer and frozen in 5-10 mL aliquots corresponding to a tissue concentration of 100 mg/mL, at -70° C. Binding characteristics of the membranes were stable for at least one month when stored at -70° C.

[4] = system: apomorphine-induced climbing; assay: apomorphine-induced climbing assay; type: in vivo, mice (male, Swiss-Webster); conditions: Mus musculus, ip; test compound i.p.; apomorphine 5.5 mg/kg s.c.; rated 20-30 min post drug; Dunnett's Test P<0.05; read-out: Apomorphine-induced climbing assay MED (minimal effective dose for inhibition)
Experimental: as §1, §2

[5] = [^3 H](+)-pentazocine approx. 0.5 nM, 37° C., 150 min
[6] = at 10 μM, [^3 H](+)-pentazocine approx. 0.5 nM, 37° C., 150 min

| pKi (sigma receptors [1]; [5]) | pKi (sigma receptors [3]) | inhibition at 10 µM (sigma receptors [1]; [6]) | Percent Inhibition of [^3 H]DTG binding (sigma receptors [3]) | Structure (SMILES) | minimal effective dose [2] | minimal effective dose [4] | inhibition at 10 µM (sigma receptors [1]) |
| --- | --- | --- | --- | --- | --- | --- | --- |
| 6.62 | 6.62 |  |  | CCOC(=O)C1CC2(C)C(C)CC1N(Cc1ccccc1)C2C (stereo not shown) [Example 2b, ethyl 3,4,8-trimethyl-2-(phenylmethyl)-2-azabicyclo[2.2.2]octane-6-carboxylate] | 951 µmol/kg | 317 µmol/kg |  |
| 5.22 | 5.21 | 59% |  | CC1CC2C(C(C)(C)O)CC1(C)C(C)N2Cc1ccccc1 (stereo not drawn) [Example 7, α,α,3,4,8-pentamethyl-2-(phenylmethyl)-2-azabicyclo[2.2.2]octane-6-methanol] |  |  |  |
| 5.93 | 5.91 | 79% | 79% | CCOC(=O)C1(C(=O)OCC)CC2(C)C(C)CC1N(Cc1ccccc1)C2C (stereo not shown) [Example 2c, diethyl 3,4,8-trimethyl-2-(phenylmethyl)-2-azabicyclo-[2.2.2] octane-6,6-dicarboxylate] |  |  |  |
| 5.23 | 5.57 | 63% | 75% | CCOC(=O)C1(SC)CC2(C)C(C)CC1N(C)C2C (stereo not shown) [Example 6, ethyl 2,3,4,8-tetramethyl-6-(methylthio)-2-azabicyclo[2.2.2]octane-6-carboxylate] |  |  |  |
| 6.85 | 7.12 |  |  | CCOC(=O)C1CC2C(C(C)C)CC1N(Cc1ccccc1)C2C (stereo not shown) [Example 9f, ethyl 3-methyl-8-(isopropyl)-2-(phenylmethyl)-2-azabicyclo[2.2.2]octane-6-carboxylate] | 304 µmol/kg | 304 µmol/kg |  |
| 5.05 | 5.34 | 47% | 65% | CC(=O)C1(C)CC2(C)C(C)CC1N(Cc1ccccc1)C2C (stereo not shown) [Example 8b, 1-[3,4,6,8-tetramethyl-2-(phenylmethyl) -2-azabicyclo[2.2.2]oct-6-yl]ethanone] |  |  |  |
| 5.58 | 6.00 | 77% | 86% | CC(=O)C1CC2C(C(C)C)CC1N(Cc1ccccc1)C2C (stereo not shown) [Example 11b, 1-[3-methyl-8-isopropyl-2-(phenylmethyl)-2-azabicyclo[2.2.2]octan-6-yl]-ethanone] |  |  |  |
| 5.01 | 5.19 |  | 29% | CCOC(=O)C1(C)CC2(C)C(C)CC1N(Cc1ccccc1)C2C (stereo not shown) [Example 8a, ethyl 2-(phenylmethyl)-3,4,6,8-tetramethyl-2-azabicyclo[2.2.2]octane-6-carboxylate] |  |  |  |
|  |  | 33% | 57% | CC=C1CC2C(C(=O)OCC)CC1C(Cc1ccccc1)N2Cc1ccccc1 (stereo not shown) [Example 3e, ethyl 2,3-di(phenylmethyl)-8-ethylidene-2-azabicyclo-[2.2.2]octane-6-carboxylatetrihydrochloride hydrobromide] |  |  |  |
| 5.53 | 5.54 | 72% | 75% | CCC1CC2C(C(C)(C)O)CC1C(Cc1ccccc1)N2C (stereo not drawn) [Example 4e, 3-(phenylmethyl)-8-ethyl-2,α,α-trimethyl-2-azabicyclo[2.2.2]octane-6-methanol] |  |  |  |

| Structure (SMILES) | pKi (sigma receptors [1]; [5]) | pKi (sigma receptors [3]) | inhibition at 10 µM (sigma receptors [1]; [6]) | Percent Inhibition of [^3 H]DTG binding (sigma receptors [3]) | minimal effective dose [2] | minimal effective dose [4] | inhibition at 10 µM (sigma receptors [1]) |
| --- | --- | --- | --- | --- | --- | --- | --- |
| CC1CC2C(CO)CC1(C)C(C)N2C (stereo not shown) [Example 10, 2,3,4,8-tetramethyl-2-azabicyclo[2.2.2]octane-6-methanol] |  |  |  | 48% |  |  | 24% |
| CCOC(=O)C1CC2C(C)NC1CC2C(C)C (stereo not shown) [Example 9e, ethyl 3-methyl-8-isopropyl-2-azabicyclo-[2.2.2]octane-6-carboxylate] |  |  |  | 48% |  |  | 30% |
| CCOC(=O)C1CC23CCCCC2CC1N(Cc1ccccc1)C3C (stereo not shown) [Example 5e, Ethyl 2,3,4,4a,5,6,7,8-octahydro-1-methyl-2-(phenylmethyl)-1H-3,8a-ethanoisoquinoline-10-carboxylate hydrochloride] | 6.48 | 6.45 |  |  |  |  | 97% |
